From patent publication US9895334B2, “Treatment of virally induced lesions” (LEO Laboratories Limited, priority 2007, dated 2018)

System: Cottontail Rabbit Papilloma Virus (CRPV) cutaneous warts
Assay: Cottontail Rabbit Papilloma Virus (CRPV) model of cutaneous warts: wart surface area after topical gel
Format: in vivo, Hra(NZW)SPF New Zealand White Rabbits
Text: Efficacy of Ingenol-3-angelate (PEP005) Topical Gel in a Cottontail Rabbit Papilloma Virus (CRPV) model of cutaneous warts in Hra(NZW)SPF New Zealand White Rabbits.
Ch 25. In: Zak O, Sande M A, editors. Handbook of animal models of infection. New York: Academic Press; 1999. p. 1039-47). Concentrations of the inoculant were selected empirically based on published information for the CRPV model in which cutaneous papillomas (warts) were induced in rabbits (Christensen N D. Cottontail rabbit papillomavirus (CRPV) model system to test antiviral and immunotherapeutic strategies. Antiviral chemistry & chemotherapy 2005; 16(6):355-62). The percutaneous route was selected because this route has been successfully used to establish cutaneous papilloma (wart) formation in rabbits following inoculation with CRPV DNA.
Ten female Hra:(NZW)SPF New Zealand White (NZW) female rabbits were randomly assigned to four dose groups, three rabbits per dose group in Groups 1 through 3 and one rabbit in Group 4.
Four days before inoculation (DS-4), the backs of the rabbits were shaved over an area encompassing all eight exposure sites using an electric clipper with an appropriate blade. Following clipping, the skin was chemically depilated with Veet® (distributed by Reckitt Benckiser Inc., Parsippany, N.J., USA). The clipped area (approximately 10 cm×20 cm) extended from the shoulders to the hip joints of each rabbit and was approximately 10 cm wide (extending ventrolaterally from the dorsal midline approximately 5 cm on each side). Any re-growth of hair was carefully clipped, as needed throughout the study.
Three days before inoculation, rabbits were anesthetized with isoflourane/oxygen and the exposure sites on each rabbit were tattooed (Aims Black Pigment #242, AIMS Inc, Piscataway, N.J., USA, lot number F0707A, expiration date 30 Jun. 2008) on either side of each inoculation site. Each exposure site was carefully scarified using a scalpel blade (#60) to create a brush burn-like lesion in order to promote wart growth following inoculation. Rabbits were monitored constantly for signs of regular breathing and comfort while anesthetized and until full recovery from anesthesia. […]
Daily observations for development of the warts began during week 4 and continued until the first day of test article or placebo administration. The length and width of each cutaneous wart was recorded from the day of first observation to the completion of the study.
Dose administration of PEP005 Topical Gel or placebo began on DS 50. […] The treatment area of each dosing site was determined from the most recent length and width measurements of each wart (mm^2). […]

For `C/C=C(/C)C(=O)O[C@H]1C(C)=C[C@]23C(=O)[C@@H](C=C(CO)[C@@H](O)[C@]12O)[C@H]1[C@@H](C[C@H]3C)C1(C)C` [PEP005, ingenol-3-angelate], the “Average percentage change in wart area relative to Day 50” value (0.1% PEP005, 3 day treatment, Days 51-57) was 2.1%, the “Average percentage change in wart area relative to Day 50” value (0.1% PEP005, 3 day treatment, Days 56-64) was −4.7% and the “Average percentage change in wart area relative to Day 50” value (0.1% PEP005, 5 day treatment, Days 51-57) was 17.5%. For the same compound, the “Average percentage change in wart area relative to Day 50” value (0.1% PEP005, 5 day treatment, Days 56-64) was 3.9%.
